ChEMBL document CHEMBL3227967, “Quantitative structure-activity relationships in 1-aryl-2-(alkylamino)ethanol antimalarials” (J Med Chem, 1979)

Tested on: Plasmodium berghei
Test: Antimalarial activity against Plasmodium berghei
Format: functional

SMILES | log(1/C)
CCCCCCCN(CCCCCCC)CC(O)c1cc2ccc(C(F)(F)F)cc2c2cc(Cl)sc12 (stereo not given) | 3.38
OC(CC1CCCCN1)c1cc2cc(Br)c(Br)cc2c2cc(C(F)(F)F)ccc12 (stereo not given) | 3.58
CCCCCCCN(CCCCCCC)CC(O)c1cc2ccc(Cl)cc2c2ncccc12 (stereo not given) | 2.48
CCCCCCCN(CCCCCCC)CC(O)c1cc2ccccc2c2cc(Br)ccc12 (stereo not given) | 3.55
CCCCN(CCCC)CC(O)c1cc2ccc(Cl)cc2c2cc(Cl)ccc12 (stereo not given) | 3.79
OC(CNC1CCCCC1)c1cc2ccc(C(F)(F)F)cc2c2cc(C(F)(F)F)ccc12 (stereo not given) | 3.72
CCCCN(CCCC)CC(O)c1cc(Oc2cccc(C(F)(F)F)c2)cc2c(Cl)cc(Cl)cc12 (stereo not given) | 2.52
CCCC(CCC)NCC(O)c1cc(/C=C/c2ccc(C(F)(F)F)cc2)nc(/C=C/c2ccc(C(F)(F)F)cc2)c1 (stereo not given) | 4.24
CCCCCCCN(CCCCCCC)CC(O)c1cc2c(Cl)cc(Cl)cc2c2cc(C(F)(F)F)ccc12 (stereo not given) | 3.53
CCCCN(CCCC)CC(O)c1cc(-c2ccc(Cl)c(Cl)c2)nc(-c2ccc(Cl)c(Cl)c2)c1 (stereo not given) | 2.63
CCCCNCC(O)c1cc(-c2ccc(C(F)(F)F)cc2)nc(C(F)(F)F)c1 (stereo not given) | 4.08
OC(CC1CCCCN1)c1cc2ccc(C(F)(F)F)cc2c2cc(C(F)(F)F)ccc12 (stereo not given) | 3.99
CCCCCCCN(CCCCCCC)CC(O)c1cc2ccccc2c2c(Cl)cccc12 (stereo not given) | 3.09
OC(CC1CCCCN1)c1ccnc2c(C(F)(F)F)cccc12 (stereo not given) | 2.75
CCCCN(CCCC)CC(O)c1cc2ccc(Cl)cc2c2cc(C(F)(F)F)ccc12 (stereo not given) | 3.65
CCCCCCCN(CCCCCCC)CC(O)c1cccc2c1cc(Cl)c1ccc(Cl)cc12 (stereo not given) | 2.96
CCCCN(CCCC)CC(O)c1cc2cc(S(C)(=O)=O)ccc2c2cc(Cl)c(Cl)cc12 (stereo not given) | 3.74
CCCCN(CCCC)CC(O)c1cc(-c2cccc(I)c2)nc2c(Cl)cc(Cl)cc12 (stereo not given) | 3.16
CCCCN(CCCC)CC(O)c1cc2cc(Br)ccc2c2ccccc12 (stereo not given) | 3.5
CCCCN(CCCC)CC(O)c1cc(/C=C/c2ccc(Cl)cc2)nc(/C=C/c2ccc(Cl)cc2)c1 (stereo not given) | 4.18
OC(CC1CCCCN1)c1cc(C(F)(F)F)nc2c(C(F)(F)F)cccc12 (stereo not given) | 4.41
CCCCN(CCCC)CC(O)c1cc2cc(Cl)ccc2c2cc(C(F)(F)F)ccc12 (stereo not given) | 3.69
OC(CC1CCCN1)c1cc(-c2ccccc2)nc2ccccc12 (stereo not given) | 2.26
CN(C)CC(O)c1cc2cc(C(F)(F)F)cc(C(F)(F)F)c2c2ccccc12 (stereo not given) | 3.94

SMILES | log(1/C)
CCCCN(CCCC)CC(O)c1cc(-c2ccc(C)cc2)nc2c(C)cc(C)cc12 (stereo not given) | 2.72
CCCCN(CCCC)CC(O)c1c(OC)c2cc(Cl)ccc2c2ccc(Cl)cc12 (stereo not given) | 3.71
CCCCN(CCCC)CC(O)c1c(Cl)c(-c2ccc(Cl)cc2)nc2c(Cl)cc(Cl)cc12 (stereo not given) | 3.87
CCCCN(CCCC)CC(O)c1cc2cc(Br)c(Br)cc2c2cc(Br)ccc12 (stereo not given) | 3.97
CCCCCCCCNCC(O)c1cc(-c2ccc(C(F)(F)F)cc2)nc(-c2ccc(C(F)(F)F)cc2)c1 (stereo not given) | 3.76
CCCCN(CCCC)CC(O)c1cc(-c2ccc(Cl)cc2)nc2cc(OC)c(Cl)cc12 (stereo not given) | 2.76
CCCCCCCN(CCCCCCC)CC(O)c1cc2sccc2c2cc(Cl)sc12 (stereo not given) | 2.64
CCCCN(CCCC)CC(O)c1c(C)c(-c2ccc(Cl)cc2)nc2c(Cl)cc(Cl)cc12 (stereo not given) | 3.06
OC(CN1CCCCC1)c1cc(-c2ccc(F)cc2)nc2cc(F)ccc12 (stereo not given) | 2.45
CCC(C)N(C)CC(O)c1cc(-c2ccc(Cl)cc2)nc(-c2ccc(Cl)cc2)c1 (stereo not given) | 3.59
OC(CC1CCCCN1)c1cc2cc(C(F)(F)F)ccc2c2ccccc12 (stereo not given) | 4.39
CCCCN(CCCC)CC(O)c1cc2ccsc2c2ccccc12 (stereo not given) | 2.38
COc1ccc(-c2cc(C(O)CC3CCCCN3)c3cc(C)ccc3n2)cc1 (stereo not given) | 3
CCCCCCN(CCCCCC)CC(O)c1cc(-c2ccc(OC)c(OC)c2)nc2cc(Cl)ccc12 (stereo not given) | 3.32
CCCCN(CCCC)CCC(O)c1cc(-c2ccc(Cl)c(Cl)c2)nc2c(Cl)cc(Cl)cc12 (stereo not given) | 4.67
CCCCN(CCCC)CC(O)c1cc2ccc(C(F)(F)F)cc2c2ccccc12 (stereo not given) | 2.8
CCCCCCCN(CCCCCCC)CC(O)c1cc2ccsc2c2cc(C(F)(F)F)ccc12 (stereo not given) | 2.77
CCCCCCCN(CCCCCCC)CC(O)c1cc2ccc(Cl)cc2c2cc(Cl)ccc12 (stereo not given) | 3.12
OC(CC1CCCCN1)c1cc(-c2ccccc2)nc2c(C(F)(F)F)cccc12 (stereo not given) | 3.68
CCCCN(CCCC)CC(O)c1cc(-c2ccc(Cl)cc2)nc2cc(Cl)c(OC)cc12 (stereo not given) | 3.87
CCCCCCN(CCCCCC)CC(O)c1cc(-c2ccc(OC)cc2)nc2cc(Cl)c(Cl)cc12 (stereo not given) | 3.35
CN1CCN(CC(O)c2cc(-c3ccc(Cl)cc3)nc3c(Cl)cc(Cl)cc23)CC1 (stereo not given) | 3.81
CCCC(CCC)NCC(O)c1cc(-c2ccc(C(F)(F)F)cc2)nc(C(F)(F)F)c1 (stereo not given) | 4.47
CCC(C)NCC(O)c1cc(-c2ccc(Cl)cc2)nc(-c2ccc(Cl)cc2)c1 (stereo not given) | 4.09

SMILES | log(1/C)
CCCCN(CCC)CC(O)c1ccc2cc3ccccc3cc2c1 (stereo not given) | 2.49
CCCCN(CCCC)CC(O)c1cc2ccc(F)cc2c2ccccc12 (stereo not given) | 2.43
OC(CC1CCCCN1)c1cc(Nc2ccc(Cl)cc2)nc2ccc(Cl)cc12 (stereo not given) | 2.72
OC(CN1CCN(c2ccccc2)CC1)c1cc(-c2ccccc2)nc2c(Cl)cc(Cl)cc12 (stereo not given) | 2.66
OC(C[N+]12CCC(CC1)CC2)c1cc2ccc(Cl)cc2c2cc(Cl)ccc12 (stereo not given) | 2.98
CCCCN(CCCC)CC(O)c1cc2cc(C(F)(F)F)ccc2c2ccccc12 (stereo not given) | 3.79
CCCCN(CCCC)CC(O)c1cc(-c2ccc(Cl)cc2)nc2cc(I)ccc12 (stereo not given) | 3.43
CCCCN(CCCC)CC(O)c1cc(C(=O)c2cc(C(F)(F)F)cc(C(F)(F)F)c2)nc2c(Cl)cc(Cl)cc12 (stereo not given) | 4.64
CCCCN(CCCC)CC(O)c1cc2ccccc2c2cc(F)ccc12 (stereo not given) | 2.58
CCCCCCCN(CCCCCCC)CC(O)c1cc2ccccc2c2cc(Br)ccc12.O=C(O)CCC(=O)O (stereo not given) | 3.52
CCCCN(CCCC)CC(O)c1cc2cnccc2c2c(Cl)cc(Cl)cc12 (stereo not given) | 2.42
CCCCN(CCCC)CC(O)c1cc2cc(Br)cc(Br)c2c2ccccc12 (stereo not given) | 4.22
CC[C@H]1CN2CC[C@H]1C[C@H]2[C@H](O)c1ccnc2ccc(OC)cc12 [HYDROQUININE] | 2.04
CCCCN(CCCC)CC(O)c1cc(-c2ccc(Cl)c(Cl)c2)nc2ccc(OC)cc12 (stereo not given) | 3.33
CCCCCCCN(CCCCCCC)CC(O)c1cc2ccc(Cl)cc2c2ccncc12 (stereo not given) | 2.31
CCCCN(CCCC)CC(O)c1cc(-c2ccc(I)cc2)nc2c(Cl)cc(Cl)cc12 (stereo not given) | 4.5
CCCCN(CCCC)CC(O)c1cc2ccc(Cl)cc2c2c(Cl)cc(Cl)cc12 (stereo not given) | 4.21
CCCCN(CCCC)CC(O)c1cc2ccc(Cl)c(Cl)c2c2cc(C(F)(F)F)ccc12 (stereo not given) | 3.98
CCCCCCCN(CCCCCCC)CC(O)c1cc(Cl)cc2ccc(-c3ccc(Cl)cc3)nc12 (stereo not given) | 2.34
OC(CC1CCCCN1)c1cc2ccc(C(F)(F)F)cc2c2cc(Br)ccc12 (stereo not given) | 3.86
OC(CC1CCCCN1)c1cc(C(F)(F)F)nc2ccc(C(F)(F)F)cc12 (stereo not given) | 3.65
Cc1ccc(-c2cc(C(O)CN3CCCCC3)c3cc(C)ccc3n2)cc1 (stereo not given) | 2.42
